Here are results for five compounds from ChEMBL document CHEMBL2417538, “Antithrombotic effects of LB30870, a potent, orally active, selective and direct thrombin inhibitor, and pharmacokinetics of its prodrug” (Bioorg Med Chem Lett, 2013).

Converted amounts (≈) assume the structure as drawn. A value given as a limit tells only on which side of the number the result lay.

One series has as its target Trypsin (Homo sapiens, UniProt P07477+P07478+P35030). Description: Inhibition of human trypsin. Format: protein assay.
A further series has as its target Plasminogen (Homo sapiens, UniProt P00747). Briefly: Inhibition of human plasmin.
Series [1] has as its target Tissue-type plasminogen activator (Homo sapiens, UniProt P00750). Briefly: Inhibition of human t-PA.
In the next series the target is Coagulation factor X (Homo sapiens, UniProt P00742). Description: Inhibition of human factor 10a.
Series [2] can be described thus: Distribution coefficient, log D of the compound at pH 7 by potentiometric titration. Format: physicochemical. The conditions noted are these: octanol/water.
A short description of series [3]: Dissociation constant, pKa of the compound by potentiometric titration. Format: physicochemical.
The test system of series [4] is Rattus norvegicus. Briefly: AUC in Sprague-Dawley rat at 30 mg/kg, po assessed as LB30887. The series is classed as ADME, organism-based, Plasma. Also noted: dose 30 mg/kg, route oral. The conditions noted are these: in vivo.
Series [5] concerns Rattus norvegicus. Briefly: Cmax in Sprague-Dawley rat at 30 mg/kg, po assessed as LB30887. The series is classed as ADME, organism-based. Also noted: dose 30 mg/kg, route oral. The conditions noted are these: in vivo.
The subject of series [6] is Canis familiaris. Description: Cmax in Beagle dog at 10 mg/kg, po assessed as LB30870. Also noted: dose 10 mg/kg, route oral. Format: ADME, organism-based, Canis lupus familiaris. The conditions noted are these: in vivo.
Series [7] has as its system Canis familiaris. Description: Oral bioavailability in Beagle dog at 10 mg/kg assessed as LB30870. The conditions noted are these: in vivo. Format: ADME, organism-based, Canis lupus familiaris.
In series [8] the test system is Rattus norvegicus. Briefly: Cmax in Sprague-Dawley rat at 30 mg/kg, po assessed as LB30870. On the set-up: dose 30 mg/kg, route oral. The conditions noted are these: in vivo. Format: ADME, organism-based.
Series [9] has as its system Canis familiaris. Description: AUC in Beagle dog at 10 mg/kg, po assessed as LB30887. The series is classed as ADME, organism-based, Canis lupus familiaris, Plasma. On the set-up: dose 10 mg/kg, route oral. The conditions noted are these: in vivo.
Series [10] relates to Rattus norvegicus. Briefly: AUC in Sprague-Dawley rat at 30 mg/kg, po assessed as LB30870. Format: ADME, organism-based, Plasma. Also noted: dose 30 mg/kg, route oral. The conditions noted are these: in vivo.
The subject of series [11] is Canis familiaris. Briefly: Cmax in Beagle dog at 10 mg/kg, po assessed as LB30887. Format: ADME, organism-based, Canis lupus familiaris. Also noted: dose 10 mg/kg, route oral. The conditions noted are these: in vivo.
Series [12] can be described thus: Aqueous solubility of the compound at pH 6.96. The conditions noted are these: aqueous solution. The series is classed as physicochemical.
A short description of series [13]: Aqueous solubility of the compound at pH 3.04. Format: physicochemical. The conditions noted are these: aqueous solution.
The test system of series [14] is Canis familiaris. Description: AUC in Beagle dog at 10 mg/kg, po assessed as LB30870. The series is classed as ADME, organism-based, Canis lupus familiaris, Plasma. Also noted: dose 10 mg/kg, route oral. The conditions noted are these: in vivo.
A short description of series [15]: Aqueous solubility of the compound at pH 4.73. The series is classed as physicochemical. The conditions noted are these: aqueous solution.
The subject of series [16] is Rattus norvegicus. Briefly: Oral bioavailability in Sprague-Dawley rat at 30 mg/kg assessed as LB30870. The series is classed as ADME, organism-based. The conditions noted are these: in vivo.
Series [17] in a line: Aqueous solubility of the compound at pH 6.3. The series is classed as physicochemical. The conditions noted are these: aqueous solution.
The nature of series [18]: Aqueous solubility of the compound at pH 7.4. The conditions noted are these: aqueous solution. Format: physicochemical.
A short description of series [19]: Aqueous solubility of the compound at pH 9.0. Format: physicochemical. The conditions noted are these: aqueous solution.
The nature of series [20]: Plasma protein binding in rat at 1 ug/ml by ultra-filtration method. The series is classed as ADME, cell-free. The conditions noted are these: read-out: PPB (converted).
Series [21] has as its system Rattus norvegicus. Description: Anticoagulant activity in Sprague-Dawley rat deep vein thrombosis model assessed as wet clot weight at […], iv administered as bolus and 2.5 ug/kg/min administered as infusion (reference value: 83 +/- 5.1 mg). The series is classed as functional.
Series [22] concerns Rattus norvegicus. Briefly: Anticoagulant activity in Sprague-Dawley rat deep vein thrombosis model assessed as reduction in wet clot weight at 35 ug/kg, iv administered as infusion. Format: functional.
Series [23] deals with Rattus norvegicus. Description: Anticoagulant activity in Sprague-Dawley rat deep vein thrombosis model assessed as wet clot weight at 0.125 mg/kg, iv administered as bolus and 5 ug/kg/min administered as infusion (reference value: 83 +/- 5.1 mg). Format: functional.
Series [24] has as its system Rattus norvegicus. Description: Anticoagulant activity in Sprague-Dawley rat deep vein thrombosis model assessed as prothrombin time change at […], iv administered as bolus and 2.5 ug/kg/min administered as infusion relative to control. Format: functional.
The test system of series [25] is Rattus norvegicus. Briefly: Anticoagulant activity in Sprague-Dawley rat deep vein thrombosis model assessed as activated partial thromboplastin time change at 0.125 mg/kg, iv administered as bolus and 5 ug/kg/min administered as infusion relative to control. Format: functional.
The subject of series [26] is Rattus norvegicus. Briefly: Anticoagulant activity in Sprague-Dawley rat deep vein thrombosis model assessed as reduction in wet clot weight administered as iv bolus followed by infusion relative to control. Format: functional, organism-based.
Series [27] has as its system Rattus norvegicus. Briefly: Anticoagulant activity in Sprague-Dawley rat deep vein thrombosis model assessed as activated partial thromboplastin time change at 0.044 mg/kg, iv administered as bolus and 1.75 ug/kg/min administered as infusion relative to control. Format: functional.
Series [28] is described as follows: Plasma protein binding in human at 1 ug/ml by ultra-filtration method. The conditions noted are these: read-out: PPB (converted). The series is classed as ADME, cell-free.
The test system of series [29] is Rattus norvegicus. Description: Anticoagulant activity in Sprague-Dawley rat deep vein thrombosis model assessed as prothrombin time change at 0.044 mg/kg, iv administered as bolus and 1.75 ug/kg/min administered as infusion relative to control. The series is classed as functional.
The subject of series [30] is Rattus norvegicus. Briefly: Anticoagulant activity in Sprague-Dawley rat deep vein thrombosis model assessed as prothrombin time change at 0.125 mg/kg, iv administered as bolus and 5 ug/kg/min administered as infusion relative to control. The series is classed as functional.
For series [31], the system named is Rattus norvegicus. Briefly: Anticoagulant activity in Sprague-Dawley rat deep vein thrombosis model assessed as activated partial thromboplastin time change at […], iv administered as bolus and 2.5 ug/kg/min administered as infusion relative to control. The series is classed as functional.
In series [32] the test system is Rattus norvegicus. Description: Anticoagulant activity in Sprague-Dawley rat deep vein thrombosis model assessed as wet clot weight at 0.044 mg/kg, iv administered as bolus and 1.75 ug/kg/min administered as infusion (reference value: 83 +/- 5.1 mg). Format: functional.
Series [33] relates to Rattus norvegicus. Briefly: Anticoagulant activity in Sprague-Dawley rat deep vein thrombosis model assessed as activated partial thromboplastin time change at 0.25 mg/kg, iv administered as bolus and 10 ug/kg/min administered as infusion relative to control. The series is classed as functional.
Series [34] relates to Rattus norvegicus. Briefly: Anticoagulant activity in Sprague-Dawley rat deep vein thrombosis model assessed as prothrombin time change at 0.25 mg/kg, iv administered as bolus and 10 ug/kg/min administered as infusion relative to control. Format: functional.
In series [35] the test system is Rattus norvegicus. Briefly: Anticoagulant activity in Sprague-Dawley rat deep vein thrombosis model assessed as activated partial thromboplastin time change at 0.025 mg/kg, iv administered as bolus and 1 ug/kg/min administered as infusion relative to control. Format: functional.
Series [36] deals with Rattus norvegicus. Briefly: Anticoagulant activity in Sprague-Dawley rat deep vein thrombosis model assessed as prothrombin time change at 0.025 mg/kg, iv administered as bolus and 1 ug/kg/min administered as infusion relative to control. The series is classed as functional.

Chain of Coagulation factor X (P00742 41-179 limits assumed): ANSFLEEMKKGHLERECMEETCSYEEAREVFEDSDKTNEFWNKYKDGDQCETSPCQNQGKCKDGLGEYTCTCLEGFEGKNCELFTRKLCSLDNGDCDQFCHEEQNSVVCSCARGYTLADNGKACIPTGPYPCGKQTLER
Chain of Coagulation factor X (P00742 235-488 limits assumed): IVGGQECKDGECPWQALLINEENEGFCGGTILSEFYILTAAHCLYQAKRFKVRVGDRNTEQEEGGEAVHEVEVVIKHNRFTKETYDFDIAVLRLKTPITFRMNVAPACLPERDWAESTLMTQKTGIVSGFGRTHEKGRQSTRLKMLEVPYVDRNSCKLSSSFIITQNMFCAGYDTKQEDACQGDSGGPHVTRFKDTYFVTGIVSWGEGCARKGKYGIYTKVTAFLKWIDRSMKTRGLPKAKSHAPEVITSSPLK
Chain of Tissue-type plasminogen activator (P00750 whole entry): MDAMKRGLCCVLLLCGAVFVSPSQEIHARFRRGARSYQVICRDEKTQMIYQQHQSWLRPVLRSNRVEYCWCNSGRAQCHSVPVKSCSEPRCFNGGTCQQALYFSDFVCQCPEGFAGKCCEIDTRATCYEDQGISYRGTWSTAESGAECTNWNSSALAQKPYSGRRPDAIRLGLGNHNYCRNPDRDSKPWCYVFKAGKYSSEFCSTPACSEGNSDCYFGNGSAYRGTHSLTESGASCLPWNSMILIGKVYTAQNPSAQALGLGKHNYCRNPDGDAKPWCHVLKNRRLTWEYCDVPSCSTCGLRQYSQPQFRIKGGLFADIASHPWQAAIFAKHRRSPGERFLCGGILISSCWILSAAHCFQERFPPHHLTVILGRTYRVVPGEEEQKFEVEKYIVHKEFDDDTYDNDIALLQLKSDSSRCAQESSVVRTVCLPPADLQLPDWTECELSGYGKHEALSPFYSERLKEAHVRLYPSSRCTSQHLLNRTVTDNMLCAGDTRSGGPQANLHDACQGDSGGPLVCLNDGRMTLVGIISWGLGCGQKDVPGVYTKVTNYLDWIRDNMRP
Chain of Plasminogen (P00747 97-580 limits assumed): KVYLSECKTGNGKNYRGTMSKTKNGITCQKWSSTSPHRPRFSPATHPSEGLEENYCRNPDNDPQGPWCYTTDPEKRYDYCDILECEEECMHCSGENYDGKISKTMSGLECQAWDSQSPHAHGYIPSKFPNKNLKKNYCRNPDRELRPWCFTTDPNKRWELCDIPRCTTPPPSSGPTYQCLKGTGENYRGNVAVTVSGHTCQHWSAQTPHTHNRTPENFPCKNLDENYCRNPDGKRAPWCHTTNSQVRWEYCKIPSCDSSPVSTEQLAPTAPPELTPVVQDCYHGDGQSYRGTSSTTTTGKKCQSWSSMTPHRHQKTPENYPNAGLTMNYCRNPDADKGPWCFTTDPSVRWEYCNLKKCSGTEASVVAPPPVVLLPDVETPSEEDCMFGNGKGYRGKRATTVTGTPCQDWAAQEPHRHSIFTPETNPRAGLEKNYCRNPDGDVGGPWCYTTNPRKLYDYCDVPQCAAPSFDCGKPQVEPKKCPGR
Chain of Plasminogen (P00747 581-810 limits assumed): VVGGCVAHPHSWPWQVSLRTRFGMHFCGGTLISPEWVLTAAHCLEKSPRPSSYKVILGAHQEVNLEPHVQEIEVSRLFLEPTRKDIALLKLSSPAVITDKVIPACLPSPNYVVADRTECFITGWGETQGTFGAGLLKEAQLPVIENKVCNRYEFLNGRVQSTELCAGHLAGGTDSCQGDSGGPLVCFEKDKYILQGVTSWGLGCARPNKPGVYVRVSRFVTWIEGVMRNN

In general, Ki refers to the equilibrium dissociation constant of an inhibitor or competing ligand from its target. High values mean weaker binding, low ones tighter binding. With `CC1CNc2c(cccc2S(=O)(=O)N[C@@H](CCCNC(=N)N)C(=O)N2CC[C@@H](C)C[C@@H]2C(=O)O)C1` (stereo partly specified) [ARGATROBAN], the Ki stood at 1.99 µM on Trypsin, 257 µM on Plasminogen, 87.8 µM in series [1] and 53 µM on Coagulation factor X.

The term logD denotes lipophilicity at a set pH, counting ionised and neutral species. Low readings indicate lower lipophilicity, high ones higher lipophilicity. In general, pKa refers to the negative logarithm of the acid dissociation constant. Higher therefore signals a group that holds its proton tightly. In the case of `CCOC(=O)CN[C@@H](C(=O)N1CC[C@H]1C(=O)NCc1ccc(/C(N)=N\O)cc1)C1CCCCC1` [XIMELAGATRAN], the logD in series [2] came to 0.41. The compound also displayed a pKa in [3] of 4.73.

In general, AUC refers to the area under the concentration-time curve, a measure of exposure. What is called Cmax is the highest concentration seen after dosing. The term solubility denotes how much of the substance goes into solution per volume. The low end stands for a poorly soluble substance, the high end for a readily soluble substance. In the case of `CCOC(=O)CN[C@H](C(=O)N1CCC[C@H]1C(=O)NCc1ccc(/C(N)=N/O)s1)C(c1ccccc1)c1ccccc1`, the AUC is 203 µg·min/mL with Rattus norvegicus [4], 100 µg·min/mL with Canis familiaris [9], 38 µg·min/mL with Rattus norvegicus [10] and 491 µg·min/mL with Canis familiaris [14]. Moreover, the Cmax was determined as 1740 ng/mL in the series on Rattus norvegicus [5], 3700 ng/mL in the series with Canis familiaris [6], 440 ng/mL with Rattus norvegicus [8] and 2100 ng/mL with Canis familiaris [11]. Further, the F is recorded as 35% in the series with Canis familiaris [7] and 13% in the series with Rattus norvegicus [16]. The logD in [2] worked out at 1.74. For the same compound, the solubility was below 10 µg/mL in [12], 550 µg/mL (≈ 952 µM) in series [13] and 10 µg/mL (≈ 17.3 µM) in series [15]. Also, the pKa in [3] came out at 3.98.

With `CCCCCCOC(=O)NC(=N)c1ccc(NCc2nc3cc(C(=O)N(CCC(=O)OCC)c4ccccn4)ccc3n2C)cc1` [DABIGATRAN ETEXILATE], the solubility was determined as 2.3 µg/mL (≈ 3.66 µM) in series [17], 0.4 µg/mL (≈ 0.637 µM) in [18] and 0.3 µg/mL (≈ 0.478 µM) in [19]. The logD in series [2] amounted to 3.7.

In general, ED50 refers to the dose that gives a 50% effect, or the effect in half of the subjects. Turning to `N=C(N)c1ccc(CNC(=O)[C@@H]2CCN2C(=O)[C@H](NCC(=O)O)C2CCCCC2)cc1`, the fraction unbound at 1 ug/ml in series [20] was 0.9; in [28] it was 0.847. The Activity is 15.9 mg in the series on Rattus norvegicus [21], 3.6 mg in the series with Rattus norvegicus [23], “Dose-dependent effect” in the series on Rattus norvegicus [26] and 25.6 mg in the series on Rattus norvegicus [32]. Besides, the ED50 with Rattus norvegicus [22] was 1.4 µg/kg/min. Moreover, the Ki at Trypsin came to 0.0043 µM; on Plasminogen, 1.8 µM; in [1], 1.51 µM; on Coagulation factor X, 3.68 µM. In addition, the “fold change (FC)” value in the series with Rattus norvegicus [24] is 1.46; in the series with Rattus norvegicus [25], 3.95; in the series on Rattus norvegicus [27] it was 1.98; in the series on Rattus norvegicus [29] it was 1.42; with Rattus norvegicus [30] it was 2.72; with Rattus norvegicus [31], 1.83. In addition, the “fold change (FC)” value in the series with Rattus norvegicus [33] is on record as 6.05; in the series with Rattus norvegicus [34] it was 3.66; with Rattus norvegicus [35], 1.67; with Rattus norvegicus [36] it was 1.13.
